Data taken from patent US9138433B2, “Indole alkaloid compounds as melanogenesis promoters and uses thereof” (NEW YORK UNIVERSITY, priority 2010, dated 2015).

Columns and labels:
[1] = system: melan-a cells; assay: Melanin assay in cultured murine melanocytes (melan-a); format: cell-based; settings: melanin content, 72 hours incubation
Method: The Spectrum Collection library consisting of 2000 drug compounds or natural products was screened to identify novel pigmentation inhibitors or stimulators in cultured murine melanocytes (melan-a). Compounds were dissolved in dimethylsulfoxide (DMSO) to a final concentration of 10 mM. Screening was performed with cultured melanocytes in 24-well plates followed by melanin assay (see below). A minimum change of 50% in melanin formation was established as significant for a pigmentation inhibitor or stimulator. DMSO was used as a negative control and the widely used depigmenting agent, hydroquinone, was used as a positive control on every plate. Primary screening was performed at a final concentration of 1 μM and potential candidates from the primary screening were reconfirmed in duplicate at final concentrations of 1 and 5 μM.
Melan-a cells were plated at 5×10^4 cells per well in 1 ml of culture media in 24-well plates the day before adding the library compounds. All compounds were added at the indicated final concentrations. Cells were harvested after 72 hours of incubation, and melanin assay was performed.
For further test and mechanism of action studies, the compounds were purchased from either Sigma or MicroSource. These compounds were dissolved in dimethylsulfoxide (DMSO) to a final concentration of 10 mM, and were tested for their effect on melanin synthesis at the indicated final concentrations.
For the primary and secondary screening, cells were harvested and dissolved in 200 μl of 2N NaOH in 20% DMSO at 70° C. A 180-μl aliquot of the resulting solution was measured for absorbance at 490 nm.
Cells are harvested in extraction buffer (1% Triton X-100, 50 mM Tris, 2 mM EDTA, 150 mM NaCl, pH 7.5) containing a complete protease inhibitor cocktail (Roche). The lysates were centrifuged at 14,000 rpm for 10 minutes at 4° C. BCA protein assay kit (Pierce) was used to measure the protein concentrations of the supernatants, and bovine serum albumin was used as a standard. The remaining pellets were incubated with 100 μl ethanol-ether (1:1) for 10 minutes at room temperature. After removing the ethanol-ether, the pellets were dissolved in 200 μl of 2N NaOH in 20% DMSO at 70° C. A 180-μl aliquot of the resulting solution was measured for absorbance at 490 nm. The melanin contents were normalized to the total amount of protein.

[2] = system: Tyr, Tryp-1 or Lamp-1 in melan-a cells; assay: Sub-cellular localization of Tyr, Tyrp-1, Lamp-1 in melan-a cells (immunofluorescence); format: cell-based, murine; settings: 10 μM, 72 hrs at 37° C., FIGS. 4A and 4B
Method: Cells were cultured on cover slips, incubated with or without 10 μM pubescine for 72 hrs at 37° C. The cells were fixed with −20° C. methanol for 5 min and stained by immunofluorescence with antibodies for Tyr, Tyrp-1 and/or Lamp-1. The slides were analyzed with a confocal microscope (LSM 510, Zeiss).

[3] = system: Tyr gene family proteins and gp100 in melan-a cells; assay: Cellular levels of Tyr gene family proteins and gp100 in melan-a cells (immunoblot); format: cell-based, murine; settings: various concentrations, 72 hrs, FIG. 3
Method: Melan-a cells were incubated with various concentrations of pubescine for 72 hrs. Cell lysates were prepared and separated by 7.5% sodium dodecyl sulfate-polyacrylamide gel and transferred to Immobilon-P membranes. Tyrosinase gene family proteins were detected with antibodies against each protein. The results are set forth in the gel of FIG. 3.

[4] = system: Asian skin equivalent (MEL-A); assay: MelanoDerm pigmentation assay, Asian skin equivalent (MEL-A); format: cell-based, human
Method: MelanoDerm™, made by MatTek Corp., is a viable reconstituted three-dimensional human skin equivalent containing normal melanocytes and keratinocytes that are derived from African-American (MEL-B), Asian (MEL-A) or Caucasian (MEL-C) donors. Both MEL-A and MEL-B tissues were used in the current study, and they were maintained in the NMM-113 medium as recommended by the manufacturer.
Pubescine (from Sigma) was dissolved in 30% ethanol: 70% propylene glycol to a final concentration of 1.0 mM (equal to 356.6 μg/ml), and this was maintained constant and used on all samples tested. A 25 μl of its aliquot was applied topically to the MelanoDerm™ tissue (MEL-B) on Days 0, 1, 3, 6, 8 and 10. The MelanoDerm™ tissues were fed every other day with 5 ml fresh NMM-113. Prior to each application, the tissues were washed with 1 ml PBS to remove any residual test compound. Tissues were fixed on Days 10 and 13 for microscopic analysis and histological evaluation. In addition, duplicate tissues were frozen on Days 10 and 13 for the melanin assay.
Similar experiments were performed on Asian skin equivalent (MEL-A) except: the treatments were applied on Days 0, 1, 3, 6, 8, 10 and 13. Tissues were taken out on Days 13 and 16 for the various assays. […]
Procedure 1: the effects of pubescine on melanin synthesis in MEL-A or B were evaluated by light microscopy (views from the top surface of the tissue). […]

SMILES	% after treatment @ 1 μM [1] [%]	% after treatment @ 5 μM [1] [%]	Sub-cellular localization of Tyr, Tryp-1 or Lamp-1 [2]	Cellular levels of tyrosinase family proteins and gp100 [3]	Fontana-Masson staining, melanin content ([4]; Asian skin equivalent (MEL-A), FIG. 6)	Melanin content increase of Asian skin equivalent (MEL-A) ([4]; pubescine 1.0 mM topical, 25 μl, FIG. 7) [%]
COC(=O)[C@H]1[C@H]2C[C@H]3c4[nH]c5ccccc5c4CCN3C[C@@H]2CC[C@@H]1O [ID 1, Corynanthine]	111	211	–	–	–	–
CC[C@H]1[C@@H]2C[C@H]3[C@@H]4N(C)c5ccccc5[C@]45C[C@@H]([C@H]2[C@H]5O)N3[C@@H]1O [ID 2, Ajmaline, reference compound]	117	206	–	–	–	–
COC(=O)C1=CO[C@@H](C)[C@H]2CN3CCc4c([nH]c5ccccc45)[C@@H]3C[C@H]12 [ID 3, Ajmalicine, reference compound]	106	133	–	–	–	–
COC(=O)[C@H]1[C@H]2C[C@@H]3c4[nH]c5cc(OC)ccc5c4CCN3C[C@H]2C[C@@H](OC(=O)c2cc(OC)c(OC)c(OC)c2)[C@@H]1OC [ID 4, Reserpine, reference compound]	117	133	–	–	–	–
COc1ccc2c3c([nH]c2c1)[C@@H]1C[C@H]2[C@@H](C[C@@H](O)[C@H](OC)[C@H]2C(=O)O)CN1CC3 [ID 5, Reserpic Acid]	111	217	–	–	–	–
COC(=O)C1=CO[C@@H](C)[C@H]2CN3CCc4c([nH]c5cc(OC)ccc45)[C@@H]3C[C@H]12 [ID 6, Pubescine]	172	267	does not alter the sub-cellular localization	increases cellular levels of tyrosinase family proteins and gp100 in a dose-dependent manner	increase in the melanin content	~40
